Laboratory results reported in US20230357222A1, “SELECTIVE SMALL MOLECULE DEGRADERS OF CEREBLON” (DANA-FARBER CANCER INSTITUTE, INC., priority 2020, published 2023).

Key:
Type in all cases: cell-based
cereblon (CRBN) [1] = target: T1, cereblon (CRBN) (Homo sapiens, UniProt Q96SW2); test: Proteomic analysis (TMT LC-MS3) of protein abundance in cells; conditions: MM1.s cells, 50 nM, 6 hours
T1 construct: endogenous in cells; host or cells: MM1.s cells (also HEK293T, MOLT4, SK-N-DZ and Kelly cells for compound 1)
Description: MM1.s cells were treated with DMSO or 50 nM of bispecific compound 1 or 6 in biological triplicates for 6 hours and cells harvested by centrifugation. Lysis buffer (8 M Urea, 50 mM NaCl, 50 mM 4-(2hydroxyethyl)-1-piperazineethanesulfonic acid (EPPS) pH 8.5, Protease and Phosphatase inhibitors from Roche®) was added to the cell pellets and homogenized by 20 passes through a 21 gauge (1.25 in. long) needle to achieve a cell lysate with a protein concentration between 1-4 mg mL-1. A micro-BCA assay (Pierce™) was used to determine the final protein concentration in the cell lysate. 200 μg of protein for each sample were reduced and alkylated as described in Donovan et al., Elife 7:e38430 (2018).
Proteins were precipitated using methanol/chloroform. In brief, four volumes of methanol were added to the cell lysate, followed by one volume of chloroform, and finally three volumes of water. […]
Anhydrous ACN was added to each peptide sample to a final concentration of 30% v/v, and labeling was induced with the addition of TMT reagent to each sample at a ratio of 1:4 peptide:TMT label. […] The sample channels were combined at a 1:1:1:1:1:1:1:1:1:1 ratio, desalted using C18 solid phase extraction cartridges (Waters®) and analyzed by LC-MS for channel ratio comparison. Samples were then combined using the adjusted volumes determined in the channel ratio analysis and dried down in a speed vacuum. […]

cereblon (CRBN) [2] = target: T1, cereblon (CRBN); test: CRBN degradation in MM1.s cells, 4-h dose titration, immunoblot; conditions: 4-h dose titration treatment
Description: (§1) MM1.S cells were generously provided by James Bradner (Dana-Farber Cancer Institute (DFCI), Boston, MA). MM1.S cells were cultured in Roswell Park Memorial Institute (RPMI)-1640 media containing L-glutamine, supplemented with 10% fetal bovine serum (FBS) and 1% penicillin/streptomycin. Mycoplasma testing was performed on a monthly basis and all lines were negative.
(§2) Cells were washed with ice cold phosphate-buffered saline (PBS) before being lysed with Cell Lysis Buffer (Cell Signaling Technology®) supplemented with protease and phosphatase inhibitor cocktails (Roche®) at 4° C. for 15 minutes. The cell lysate was vortexed before being centrifuged at 14,000×g for 20 min at 4° C. Protein in cell lysate was quantified by bicinchoninic acid (BCA) assay (Pierce™). Primary antibodies used in this study include CDK9 (Cell Signaling Technology®, 2316S), CKlα (Abcam®, ab206652), CRBN (Novus Biologicals®, NBP1-91810), eRF3/GSPT1 (Abcam®, ab49878), IKZF1 (Ikaros) (Cell Signaling Technology®, 5443S), IKZF3 (Aiolos) (Cell Signaling Technology®, 15103S), VHL (Cell Signaling Technology®, 68547S), and vinculin (Abcam®, ab130007). Blot quantification was performed using Image Studio 4.0 software, normalizing to loading controls.

cereblon (CRBN) [3] = target: T1, cereblon (CRBN); test: CRBN degradation in MM1.s cells, time course experiment, immunoblot; conditions: 50-nM dose
Description: as §1, §2
The experimental protocol is set forth above in Example 7.

T1 sequence (Q96SW2 whole entry): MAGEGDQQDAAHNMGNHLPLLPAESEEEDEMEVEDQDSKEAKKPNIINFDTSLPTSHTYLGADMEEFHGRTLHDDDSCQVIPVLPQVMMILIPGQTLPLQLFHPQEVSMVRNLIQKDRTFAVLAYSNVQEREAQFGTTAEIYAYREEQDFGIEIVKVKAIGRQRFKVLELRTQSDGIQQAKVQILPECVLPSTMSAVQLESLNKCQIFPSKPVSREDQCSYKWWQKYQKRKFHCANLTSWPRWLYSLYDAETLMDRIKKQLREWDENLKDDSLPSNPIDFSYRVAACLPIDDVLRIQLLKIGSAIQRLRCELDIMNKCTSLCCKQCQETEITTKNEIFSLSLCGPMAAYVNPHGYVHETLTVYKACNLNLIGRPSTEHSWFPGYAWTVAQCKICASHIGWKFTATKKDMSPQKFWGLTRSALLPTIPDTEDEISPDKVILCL

Row | Compound | proteins significantly degraded by proteomic analysis (selectivity) (cereblon (CRBN) [1]) | CRBN degrader potency and selectivity (in words) (cereblon (CRBN) [2]) | concentration at which virtually complete degradation of CRBN is seen (cereblon (CRBN) [2]) | earliest time at which CRBN degradation is seen after treatment (cereblon (CRBN) [3])
1 | Cc1ncsc1-c1ccc(CNC(=O)[C@@H]2C[C@@H](O)CN2C(=O)[C@@H](NC(=O)CCCCCCCCCCOc2cccc3c2C(=O)N(C2CCC(=O)NC2=O)C3=O)C(C)(C)C)cc1 (stereo partly drawn) [Compound 1, (2S,4R)-1-((2S)-2-(11-((2-(2,6-dioxopiperidin-3-yl)-1,3-dioxoisoindolin-4-yl)oxy)undecanamido)-3,3-dimethylbutanoyl)-4-hydroxy-N-(4-(4-methylthiazol-5-yl)benzyl)pyrrolidine-2-carboxamide] | only CRBN was significantly degraded | highly potent and selective degraders of CRBN | around 50 nM | 1 h
2 | Cc1ncsc1-c1ccc([C@H](C)NC(=O)[C@@H]2C[C@@H](O)CN2C(=O)[C@@H](NC(=O)CCCCCCCCCCOc2cccc3c2C(=O)N(C2CCC(=O)NC2=O)C3=O)C(C)(C)C)cc1 (stereo partly drawn) [Compound 6, (2S,4R)-1-((2S)-2-(11-((2-(2,6-Dioxopiperidin-3-Yl)-1,3-Dioxoisoindolin-4-Yl)Oxy)Undecanamido)-3,3-Dimethylbutanoyl)-4-Hydroxy-N-((S)-1-(4-(4-Methylthiazol-5-Yl)Phenyl)Ethyl)Pyrrolidine-2-Carboxamide] | only CRBN was significantly degraded | highly potent and selective degraders of CRBN | around 50 nM | 1 h
